Test results from patent publication US10905738B2, “Synthetic peptides, prodrugs, pharmaceutical compositions and uses” (Biozeus Desenvolvimento De Produtos Biofarmacêuticos, priority 2018, dated 2021).
Where a SMILES comes first, the peptide text is derived from it.

Columns and labels:
[1] = system: smooth muscle of tracheal rings; experiment: spasmodic contraction of tracheal rings ex vivo (histamine-induced); set-up: species or system Dunkin-Hartley guinea pigs; conditions: for Effectiveness (Emax) (%): relaxation of tracheal rings contracted by histamine (50 μM); for Effectiveness (Emax) (%) / Potency (pEC50) Molar: mean±SEM; for Potency (pEC50) Molar: tracheal rings contracted by histamine (50 μM), peptides 0.01 to 10 μM
Method: The magnitude of the relaxing effect of the peptides was evaluated by means of a model of spasmodic contraction of tracheal rings ex vivo, largely employed to test new bronchodilating agents (see CULLUM, V. A., FARMER, J. B., JACK, D., LEVY, G. P. Salbutamol: a new, selective β-adrenoceptive receptor stimulant. British journal of pharmacology, 35(1): 141-151. 1969; KAO, C. H., CHU, Y. H., WANG, H. W. Effects of lidocaine on rat's isolated tracheal smooth muscle. European Archives of Oto-Rhino-Laryngology, 267(5): 817-820. 2010; SORIANO-URSÚA, M. A., VALENCIA-HERNÁNDEZ, I., ARELLANO-MENDOZA, M. G., CORREA-BASURTO, J., TRUJILLO-FERRARA, J. G. Synthesis, pharmacological and in silico evaluation of 1-(4-dihydroxy-3, 5-dioxa-4-borabycyclo [4.4.0] deca-7,9,11-trien-9-yl)-2-(tert-butylamine) ethanol, a compound designed to act as a β2 adrenoceptor agonist. European journal of medicinal chemistry, 44(7): 2840-2846. 2009).
For each test, Dunkin-Hartley guinea pigs (400-500 g) were euthanized in a CO2 atmosphere; subsequently, the trachea was exposed, removed and sectioned in segments of 1 to 3 cartilaginous tracheal rings. Each segment was transferred to an individual organ bath system containing Krebs nutritive solution (NaCl 118 mM; KCl […]; CaCl2) 2.5 mM; MgSO4 1.2 mM; KH2PO4 1.2 mM; NaHCO324 mM; glucose 11 mM) at 37° C., under constant aeration with a carbogenic mixture (95% of O2 and 5% of CO2). In each system, a stem fixed to the base of the container and another connected to an isometric transducer (GRASS FT-03) made up the support of the fragments. A data digitizing system connected to the isometric transducer allowed the recording of tension variations produced by the contraction of the tracheal rings (PowerLab™ 16/30, LabChart, version 8.1, AD Instruments, Australia). The basal tension was adjusted to 1 g, and subsequently, the contractility of the fragments was evaluated by a stimulus with carbachol (2.5 μM). After 1 h at rest, the basal tension was recovered and the tissues were subjected to contraction induced by histamine (50 μM) followed by exposure to increasing concentrations of the treatments (0.01 to 10 μM; n=8) or the comparator PnTx(19).
Table 1 lists the mean±SEM of the potency values, shown as the negative logarithm of the concentration that reduced the voltage to 50% of the maximum Histamine-induced contraction (pEC50), and efficacy (Emax), calculated from at least 8 independent tests using the sigmoid nonlinear regression equation of the software Graph Prism 5.0 (GraphPad Software, La Jolla, Ca, USA).

[2] = system: house dust mite (HDM) sensitized A/J mice; assay type: in vivo, Male A/J mice; conditions: 10 nMol and 30 nMol per animal, 6 h after intratracheal instillation
Method: Male A/J mice (18-20 g), were sensitized by house dust mite (HDM) to established acute allergic asthma according to the protocol of Haspelagh et al (HASPESLAGH, E., DEBEUF, N., HAMMAD, H., LAMBRECHT, B. N. Murine Models of Allergic Asthma. Methods Mol Biol, 1559:121-136. 2017). Inflammatory cell infiltrations in the bronchoalveolar lavage fluid (BALF) were analyzed by flow cytometry.
The mice (n=5 per group) were treated with vehicle (PBS), SEQ ID NO: 19, SEQ ID NO: 24 or PnTx(19), at doses of 10 nMol and 30 nMol per animal, by intratracheal instillation, and material were collected 6 hours post-challenge.

cavernosal strips = experiment: relaxation induced by electric stimuli in cavernosal strips pre-contracted with phenylephrine ex vivo; set-up: species or system rats of Sprague Dawley (SD) lineage; conditions: peptides 10^−10 M; 10^−8 M; 10^−6 M; FIG. 3
Method: The relaxing potential of the peptides of the present invention on the smooth muscles of cavernous strips was evaluated ex vivo using tissue isolated from rats, a model that is largely used to test drug candidates for the treatment of ED (ITALIANO, G., CALABRÒ, A., PAGANO, F. A simplified in vitro preparation of the corpus cavernosum as a tool for investigating erectile pharmacology in the rat. Pharmacological research, 30(4): 325-334. 1994; GEMALMAZ, H., WALDECK, K., CHAPMAN, T. N., TUTTLE, J. B., STEERS, W. D., ANDERSSON, K E. In vivo and in vitro investigation of the effects of sildenafil on rat cavernous smooth muscle. The Journal of Urology, 165(3): 1010-1014.2001).
Male rats of Sprague Dawley (SD) lineage were sacrificed by guillotine; the penises were removed surgically and placed on a Petri dish containing Krebs—bicarbonate solution (NaCl 118.1 mM; KCl 4.7 mM; KH2PO4 1.0 mM; MgSO4 1.0 mM; NaHCO3 25.0 mM; CaCl2) 2.5 mM and Glucose 11.1 mM). The corpus cavernosum were dissected by removing the glans, urethra, spongeous body and dorsal vein, and then separated by cutting the fibrous septum between them. Cavernosal strips measuring 2×2×7 mm were mounted separately in a bath for isolated organs containing bicarbonate solution-Krebs (pH 7.4) at 37° C., aerated with 95% of O02 and 5% of CO2. The tissue was connected to a tension transducer and the changes in tension were continuously registered. The cavernosal strips were contracted with phenylephrine (10^−5 M) and subsequently relaxed by electrical stimulation at different frequencies (1 to 32 Hz). […] Differences in the percentage of relaxation between treatment and control were evaluated with regard to statistical significance by means of two-way variance analysis (Two-Way ANOVA) followed by Bonferroni post-test. For the comparison between the treatments and control in light of the stimulation in a single frequency, the results were evaluated by one-way analysis variance (One-Way ANOVA) followed by Bonferroni post-test. […]

| SMILES | Effectiveness (Emax) (%) [1] | Potency (pEC50) Molar [1] | neutrophil accumulation in the bronchoalveolar space [2] | enhancing effect on relaxation induced by electric stimuli in strips of cavernous body contracted by phenylephrine (cavernosal strips) | relaxing effect on airway (tracheal ring) smooth muscle, in words ([1]; histamine-induced contraction ex vivo) |
| --- | --- | --- | --- | --- | --- |
| CC[C@H](C)[C@H](NC(=O)[C@H](Cc1c[nH]c2ccccc12)NC(=O)[C@H](Cc1ccccc1)NC(C)=O)C(=O)N[C@@H](C)C(=O)N[C@@H](Cc1c[nH]c2ccccc12)C(=O)N[C@@H](Cc1ccc(O)cc1)C(=O)N[C@@H](CCCCN)C(=O)N[C@@H](CC(C)C)C(=O)N[C@@H](C)C(N)=O [SEQ ID NO: 19, Ac-Phe-Trp-Ile-Ala-Trp-Tyr-Lys-Leu-Ala-NH2] (Ac-FWIAWYKLA-NH2) | 40.0 ± 3.4% | 7.3 ± 0.4 Molar | did not induce neutrophil accumulation | enhancing effect |  |
| CC[C@H](C)[C@H](NC(C)=O)C(=O)N[C@@H](C)C(=O)N[C@@H](Cc1c[nH]c2ccccc12)C(=O)N[C@@H](Cc1ccc(O)cc1)C(=O)N[C@@H](CCCCN)C(N)=O [SEQ ID NO: 24, Ac-Ile-Ala-Trp-Tyr-Lys-NH2] (Ac-IAWYK-NH2) | 29.0 ± 1.0% | 7.9 ± 0.3 Molar | did not induce neutrophil accumulation | enhancing effect | effective |
